Target: T1, human GPR119 (Homo sapiens, UniProt Q8TDV5)
T1 construct: expressed in transfected cells
T1 sequence (Q8TDV5 1-335): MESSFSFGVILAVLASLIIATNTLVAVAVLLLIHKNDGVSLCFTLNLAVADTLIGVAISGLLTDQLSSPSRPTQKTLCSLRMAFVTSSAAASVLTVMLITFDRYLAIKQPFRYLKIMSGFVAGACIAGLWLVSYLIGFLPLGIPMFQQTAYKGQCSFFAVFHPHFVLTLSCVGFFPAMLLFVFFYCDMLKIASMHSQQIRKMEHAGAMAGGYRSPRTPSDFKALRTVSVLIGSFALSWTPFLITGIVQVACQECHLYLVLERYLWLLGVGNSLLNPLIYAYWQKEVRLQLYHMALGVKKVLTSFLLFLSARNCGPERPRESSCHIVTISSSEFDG
Assay: Cyclic AMP assay (HTRF) in stable Flp-In-CHO-hGPR119 cell line
Type: cell-based
Conditions: Flp-In-CHO-hGPR119 cells, intracellular cAMP, 30 minutes at 37° C., 1 mM IBMX, read-out: CHO-GPR119-HTRF (3158) EC50
Procedure: Flp-In-CHO cells (Invitrogen, Cat. # R758-07) are maintained in Ham's F12 medium supplemented with 10% fetal bovine serum, 1% antibiotic mixture and 2 mM L-glutamine. The cells are transfected with a DNA mixture containing human GPR119 in pcDNA5/FRT vector and the pOG44 vector (1:9) using Fugene6 (Roche), according to the manufacturer's instruction. After 48 hours, the medium is changed to medium supplemented with 400 μg/ml hygromycin B to initiate the selection of stably transfected cells.
To test the activity of compounds of the invention, Flp-In-CHO-hGPR119 cells are harvested and resuspended in DMEM plus 3% lipid-depleted fetal bovine serum. Forth μl of cells are plated in 384 well plates at a density of 15,000 cells/well. IBMX (3-isobutyl-1-methyl-xanthine) is added to the cells to a final concentration of 1 mM, followed by the addition of 500 nl of the compound to be tested. The cells are incubated at 37° C. for 30 minutes. Equal volume (20 μl) of the HTRF reagents, anti-cAMP-Cryptate and cAMP-XL665, are added to the cells. The plates are incubated at room temperature for 1 hour and read on a HTRF reader according to the manufacturer's instruction.
Compounds of Formula I, in free form or in pharmaceutically acceptable salt form, produced a concentration-dependent increase in intracellular cAMP level. […] Specific EC50 data is presented for some of the compounds of the invention in the table, infra.

Row | EC50 [nM] | SMILES
1 | 397 | CCCN(Cc1cccc(O[C@H]2CCN(c3ccc(S(C)(=O)=O)cc3)C2)c1)C(=O)OC(C)C [Example 15]
2 | 82 | CCN(Cc1cccc(O[C@H]2CCN(c3ccc(S(C)(=O)=O)cc3)C2)c1)C(=O)OC(C)C [Example 14, (S)-Isopropyl ethyl(3-(1-(4-(methylsulfonyl)phenyl)pyrrolidin-3-yloxy)benzyl)carbamate]
3 | 2620 | CS(=O)(=O)c1ccc(N2CC[C@H](Oc3cccc(CNCc4ccccc4)c3)C2)c(F)c1 [Example 9]
4 | 259 | CN(Cc1ccccc1)Cc1cccc(O[C@H]2CCN(c3ccc(S(C)(=O)=O)cc3F)C2)c1 [Example 10]
5 | 33 | CC(C)N(Cc1ccccc1)Cc1cccc(O[C@H]2CCN(c3ccc(S(C)(=O)=O)cc3F)C2)c1 [Example 12]
6 | 794 | CC(C)OC(=O)OCc1cccc(O[C@H]2CCN(c3ccc(S(C)(=O)=O)cc3F)C2)c1 [Example 18, (S)-3-(1-(2-fluoro-4-(methylsulfonyl)phenyl)pyrrolidin-3-yloxy)benzyl isopropyl carbonate]
7 | 515 | CC(C)OC(=O)OCCc1cccc(O[C@@H]2CCN(c3ccc(S(C)(=O)=O)cc3F)C2)c1 [Example 20]
8 | 356 | CCN(Cc1ccccc1)Cc1cccc(O[C@H]2CCN(c3ccc(S(C)(=O)=O)cc3F)C2)c1 [Example 11]
9 | 730 | CCCN(Cc1ccccc1)Cc1cccc(O[C@H]2CCN(c3ccc(S(C)(=O)=O)cc3F)C2)c1 [Example 13]
10 | 263 | CC(C)OC(=O)N(C)Cc1cccc(O[C@H]2CCN(c3ccc(S(C)(=O)=O)cc3)C2)c1 [Example 17]
11 | 199 | CC(C)OC(=O)N(Cc1cccc(O[C@H]2CCN(c3ccc(S(C)(=O)=O)cc3)C2)c1)C(C)C [Example 16]
12 | 1020 | CC(C)OC(=O)OCc1ccc(O[C@@H]2CCN(c3ccc(S(C)(=O)=O)cc3F)C2)cc1 [Example 19]

The remaining lines, values behind:

Row | SMILES | EC50 [nM]
13 | CCN(Cc1ccccc1)Cc1cccc(O[C@H]2CCN(c3ccc(S(C)(=O)=O)cc3)C2)c1 [Example 7] | 423
14 | CC(C)OC(=O)N1CCc2ccc(CO[C@H]3CCN(c4ccc(S(C)(=O)=O)cc4)C3)cc2C1 [Example 4, (S)-isopropyl 7-((1-(4-(methylsulfonyl)phenyl)pyrrolidin-3-yloxy)methyl)-3,4-dihydroisoquinoline-2(1H)-carboxylate] | 424
15 | CC(C)N(Cc1ccccc1)Cc1cccc(O[C@H]2CCN(c3ccc(S(C)(=O)=O)cc3)C2)c1 [Example 8] | 586
16 | CC(C)OC(=O)N1CCc2cc(O[C@H]3CCN(c4ccc(S(C)(=O)=O)cc4F)C3)ccc2C1 [Example 2, (S)-isopropyl 6-(1-(2-fluoro-4-(methylsulfonyl)phenyl)pyrrolidin-3-yloxy)-3,4-dihydroisoquinoline-2(1H)-carboxylate] | 42
17 | CNCc1cccc(O[C@H]2CCN(c3ccc(S(C)(=O)=O)cc3)C2)c1 [Example 6, (S)—N-methyl-1-(3-(1-(4-(methylsulfonyl)phenyl)pyrrolidin-3-yloxy)phenyl)methanamine] | 319
18 | CC(C)OC(=O)N1CCc2cc(O[C@H]3CCN(c4ccc(S(C)(=O)=O)cc4)C3)ccc2C1 [Example 1, (S)-isopropyl 6-(1-(4-(methylsulfonyl)phenyl)pyrrolidin-3-yloxy)-3,4-dihydroisoquinoline-2(1H)-carboxylate] | 85
19 | CNCc1ccc(O[C@H]2CCN(c3ccc(S(C)(=O)=O)cc3)C2)cc1 [Example 5, (S)—N-methyl-1-(4-(1-(4-(methylsulfonyl)phenyl)pyrrolidin-3-yloxy)phenyl)methanamine] | 353
20 | CC(C)OC(=O)N1CCc2cc(CO[C@H]3CCN(c4ccc(S(C)(=O)=O)cc4)C3)ccc2C1 [Example 3, (S)-isopropyl 6-((1-(4-(methylsulfonyl)phenyl)pyrrolidin-3-yloxy)methyl)-3,4-dihydroisoquinoline-2(1H)-carboxylate] | 202

Reference: patent US20110166176A1, “COMPOUNDS AND COMPOSITIONS AS MODULATORS OF GPR119 ACTIVITY” (IRM LLC, priority 2008, published 2011)
